In paper PMC11091976, “Shorter Peptide Nucleic Acid Probes Improve Affibody-Mediated Peptide Nucleic Acid-Based Pretargeting” (ACS Pharmacology & Translational Science, 2024):
Where two headings read alike, the source gives them in different places.

Legend:
HP12 = experiment: UV melting of PNA:PNA duplex with primary probe HP12; assay type: physicochemical; settings: UV 260 nm, 20-95 °C at 1 °C/min, 5 μM each probe, 10 mM phosphate buffer, 10 mM KCl, pH 7.4
Method: (§1) The melting temperatures of secondary probes after duplex formation with primary probes were also measured by monitoring the absorbance at 260 nm as a function of temperature (see Figure S23). All probe pairs had melting temperatures well above 37 °C (body temperature) and ranged from 51 °C for the HP6:HP19 pair with 6 complementary bases to 82 °C for the previously studied HP15:HP18 pair with 15 complementary bases (see Figure 3B and Table 2). […] This secondary structure is typically adopted by antiparallel and L-amino acid-modified PNA–PNA duplexes at neutral pH.[49]
(§2) Figure S23: Normalized temperature melting profiles from 20–95°C for different primary and secondary probe pairs. UV melting curves at 260 nm. (A) HP15 (15-mer) toward secondary 15-, 12- and 9-mers. (B) HP12 (12-mer) toward secondary 12-, 9-, 8-, 7- and 6-mers. (C) HP9 (9-mer) toward secondary 9-, 8-, 7- and 6-mers. (D) HP6 (6-mer) toward secondary 6-mer.
(§3) Concentrations of duplexes in A–D are 5 μM in 10 mM […] with 10 mM KCl at pH 7.4.
(§4) (also on this page, place not known: Fraction melted Fraction meltedFraction melted Fraction melted) […]
(§5) Supplementary Material and methods […]
(§6) Biophysical characterization of PNA:PNA duplexes using CD Spectroscopy and […]
(§7) Circular dichroism (CD) and UV melts of PNA:PNA duplexes were measured on a CD spectrometer (Applied Photophysics, Leatherhead, UK) with Peltier temperature control and an external temperature probe. RP-HPLC purified and lyophilized PNA probes were dissolved in 10 mM phosphate buffer with 10 mM KCl at pH 7.4. Samples contained both primary and complementary secondary PNA probes at a final concentration of 5 µM for each probe. These samples were initially heated to 95°C for five minutes, allowed to cool to room temperature, and then transferred to a quartz cuvette with a 1.0 cm path length. A temperature probe was inserted into the solution through the cuvette's rubber cap. […]
(§8) from 20°C to 95°C with a 1°C/min temperature gradient. Simultaneously, the UV absorbance at 260 nm was recorded as a function of temperature. Fraction melted data was calculated […]
(§9) Fraction melted = 1 ― UVds― UVss , where UVss and UVds are the UV absorbances at 95°C and 20°C, respectively. The melting temperature (Tm) was determined as the maximum of the first derivative of the melting curve and was computed using the Global 3 analysis software (Applied Photophysics, […]
(§10) CD spectra in the range of 200–300 nm were recorded for all hybridized PNA:PNA pairs at 20°C before and after the UV melting experiments. All CD spectra were baseline subtracted and presented as an average of five scans.

Z-HP12 = experiment: SPR off-rate screening (single-cycle kinetics), immobilized Z-HP12; assay type: binding; settings: primary probe HP12 (immobilized Z-HP12), 25 °C, PBS-T pH 7.4, 120 nM HP16/HP20 or 362 nM HP21/HP19, dissociation 150 min, 1:1 model, duplicates
Method: (§11) The stability of new pretargeting probe combinations was assessed using SPR, and duplex melting temperatures were measured with UV–vis spectroscopy. In SPR, a high concentration of the secondary probe was injected over immobilized primary agents, and the dissociation of the hybridized complexes was monitored over 150 min (see Figures 3A, S22, and Table 2).
(§12) We utilized SPR on a Biacore T200 instrument (Cytiva) to examine how secondary PNA probes (6-mer HP19, 7-mer HP21, 8-mer HP20, and 9-mer HP16) bind to primary agents. These experiments were conducted using dextran-coated CM5 sensor chips and PBS-T buffer at pH 7.4. The ligands were immobilized through a standard EDC/NHS coupling method, and the chip surface was sealed with ethanolamine. A reference surface with no primary agent was also included.
(§13) For ranking the off-rate (kd) of the secondary probes, we employed single-cycle kinetics (SCK) at 25 °C with a flow rate of 50 μL/min. […] Secondary PNA probes were injected at various concentrations, and dissociation was monitored for 10,000 s. To regenerate the chip surface, we used two 30 s injections of 10 mM glycine-HCl, pH 1.5.
(§14) All SPR experiments were performed in duplicate, and data analysis was conducted using the Biacore T200 Evaluation software version 2.0 with a 1:1 binding model.
(§15) Figure S22: Representative SPR sensorgrams of the dissociation phase of HP16 (9-mer), HP20 (8-mer), HP21 (7-mer) and HP19 […]
(§16) After injection with the secondary probe
(§17) (120 nM of HP16 and HP20 or 362 nM of HP21 and HP19) the dissociation of the formed complex was followed for 150 minutes. All experiments were done in duplicates, and the data presented is double-referenced (reference channel and buffer injection are subtracted).
(§18) (1 picture or pasted object on this page, not shown here)

Z-HP9 [1] = experiment: SPR off-rate screening (single-cycle kinetics), immobilized Z-HP9; assay type: binding; settings: primary probe HP9 (immobilized Z-HP9), 25 °C, PBS-T pH 7.4, 120 nM HP16/HP20 or 362 nM HP21/HP19, dissociation 150 min, 1:1 model, duplicates
Method: as §11, §12, §13, §14, §15, §16, §17, §18

HP9 = experiment: UV melting of PNA:PNA duplex with primary probe HP9; assay type: physicochemical; settings: UV 260 nm, 20-95 °C at 1 °C/min, 5 μM each probe, 10 mM phosphate buffer, 10 mM KCl, pH 7.4
Method: as §1, §2, §3, §4, §5, §6, §7, §8, §9, §10

Z-HP15 [2] = experiment: SPR off-rate screening (single-cycle kinetics), immobilized Z-HP15; assay type: binding; settings: primary probe HP15 (immobilized Z-HP15), 25 °C, PBS-T pH 7.4, 120 nM HP16/HP20 or 362 nM HP21/HP19, dissociation 150 min, 1:1 model, duplicates
Method: as §11, §12, §13, §14, §15, §16, §17, §18

[3] = Solubility of secondary probes in labeling buffer; assay type: physicochemical; settings: 0.2 M NH4Ac; for increase in solubility compared to the 15-mer HP18 / maximum soluble concentration: pH 5.5, 25 °C; for maximum soluble concentration: heated 95 °C 5 min, 18-h static incubation, centrifugation, UV 260 nm of supernatant, highest concentration with at least 95% still soluble, duplicates
Method: However, as we moved to shorter PNA oligomers, solubility saw a substantial, nonlinear increase. […] For example, at 25 °C, the maximum soluble concentration of HP17 (12-mer) was around 6 μM. […]
pH 5.5 at 25°C. Dilution series of HPLC-purified and lyophilized secondary probes (1, 3, 6, 9, 13, 26, 39, 52 and 65 µM) for […]
samples were heated at 95°C for five minutes and concentration of the soluble fraction was determined by UV absorption at 260 nm before (grey bars), and after (black bars) an 18-hour static incubation at 25°C. Duplicates were prepared of all samples and the data is presented as the mean ± SD. The maximum soluble concentration of each probe, indicated in panels A-E as a dotted line, was defined as the highest concentration at which at least 95% is still in the soluble fraction after an 18-hour incubation at 25°C. PNA-aggregates are temperature-labile, as exemplified in panel C for 82 µM HP17.
After an 18-hour incubation 25°C, 6 µM is left in the soluble fraction (left black bar) but heating the sample at 95 °C for five minutes completely redissolved HP17 aggregates into solution (right black bar).
as §18
Supplementary Material and methods
Solubility of secondary probes
HPLC-purified and freeze-dried secondary probes were resuspended in 10 mM NaAc, pH 3.5-3.6 and freeze-dried in smaller aliquots. The secondary probes were re-dissolved in 0.2 M NH4Ac, pH 5.5, and the samples were heated at 95 °C for five minutes to ensure complete dissolvement. Dilution series of secondary probes (1, 3, 6, 9, 13, 26, 39, 52 and 65 μM) for […]
NH4Ac, pH 5.5. The samples were then left for an 18-hour static incubation at 25 C, before being centrifugated at 21,100 x g for 5 minutes on a standard benchtop centrifuge (Eppendorf). The supernatants were transferred to fresh 1.5 mL Eppendorf-tubes, and the […]

Z-HP9 [4] = experiment: Multicycle kinetic SPR, immobilized Z-HP9; assay type: binding; settings: MCK SPR
Method: as §12
Association and dissociation times were set at 700 and 1800 s, respectively, with regeneration accomplished through a 30 s injection of 10 mM glycine-HCl, pH 1.5.
as §14

Z-HP15 [5] = settings: SPR, primary probe HP15; cited from earlier work
Description: Table 2 Dissociation Rate Constants (kds) and Melting Temperatures (Tms) of the PNA Probe Duplexes ^a | column: kd (s^–1)

HP15 = experiment: UV melting of PNA:PNA duplex with primary probe HP15; assay type: physicochemical; settings: UV 260 nm, 20-95 °C at 1 °C/min, 5 μM each probe, 10 mM phosphate buffer, 10 mM KCl, pH 7.4
Method: as §1, §2, §3, §4, §5, §6
(§19) Circular dichroism (CD) and UV melts of PNA:PNA duplexes were measured on a CD spectrometer (Applied Photophysics, Leatherhead, UK) with Peltier temperature control and an external temperature probe. […]
as §8, §9
CD spectra in the range of 200–300 nm were recorded for all hybridized PNA:PNA pairs at 20°C before and after the UV melting experiments. […]

HP6 = experiment: UV melting of PNA:PNA duplex with primary probe HP6; assay type: physicochemical; settings: UV 260 nm, 20-95 °C at 1 °C/min, 5 μM each probe, 10 mM phosphate buffer, 10 mM KCl, pH 7.4
Method: as §1
Figure S23: Normalized temperature melting profiles from 20–95°C for different primary and secondary probe pairs. UV melting curves at 260 nm. […]
as §19, §8, §9

Substance: DOTA-AEEA-SS-acaccagg-EEY-NH2 [HP20, 8-mer secondary PNA probe with DOTA]
- Tm (HP12): 66 °C
- kd (Z-HP12): 1.6 × 10^–5 s^–1
- kd (Z-HP9 [1]): 2.6 × 10^–5 s^–1
- Tm (HP9): 64 °C
- kd (Z-HP15 [2]): 1.4 × 10^–5 s^–1
- increase in solubility compared to the 15-mer HP18 [3]: ~100 fold
- maximum soluble concentration [3]: 370 µM
- ka (Z-HP9 [4]; primary probe HP9 (Z-HP9 immobilized), 25 °C, 1.4-70 nM, 1:1 model, duplicates): 1.2 × 10^5 M^–1 s^–1
- Kd (Z-HP9 [4]; primary probe HP9, 25 °C): 0.55 nM
- kd (Z-HP9 [4]; primary probe HP9, 25 °C): 6.6 × 10^–5 s^–1
- Kd (Z-HP9 [4]; primary probe HP9, 37 °C): 0.79 nM
- ka (Z-HP9 [4]; primary probe HP9, 37 °C): 2.2 × 10^5 M^–1 s^–1
- kd (Z-HP9 [4]; primary probe HP9, 37 °C): 1.7 × 10^–4 s^–1

Substance: DOTA-AEEA-SS-atcatcaacaccagg-EEY-NH2 [HP18, 15-mer secondary PNA probe with DOTA]
- kd (Z-HP15 [5]): <10^–5 ^b s^–1
- maximum soluble concentration [3]: 3 µM
- Tm (HP15): 82 °C

Substance: DOTA-AEEA-SS-accagg-EEY-NH2 [HP19, 6-mer secondary PNA probe with DOTA]
- Tm (HP6): 51 °C
- Tm (HP12): 56 °C
- kd (Z-HP12): 6.2 × 10^–4 s^–1
- kd (Z-HP9 [1]): 2.8 × 10^–4 s^–1
- Tm (HP9): 55 °C
- kd (Z-HP15 [2]): 5.0 × 10^–4 s^–1

Substance: DOTA-AEEA-SS-atcaacaccagg-EEY-NH2 [HP17, 12-mer secondary PNA probe with DOTA]
- kd (Z-HP15 [5]): <10^–5 ^b s^–1
- Tm (HP12): 75 °C
- increase in solubility compared to the 15-mer HP18 [3]: approximately 2 fold
- maximum soluble concentration [3]: 6 µM
- solubility after 5 min at 95 °C ([3]; pH 5.5, 82 µM sample reheated at 95 °C for 5 min after 18 h at 25 °C, UV 260 nm): exceeded 82 μM
- Tm (HP15): 78 °C

Substance: DOTA-AEEA-SS-caccagg-EEY-NH2 [HP21, 7-mer secondary PNA probe with DOTA]
- Tm (HP12): 60 °C
- kd (Z-HP12): 4.5 × 10^–5 s^–1
- kd (Z-HP9 [1]): 9.2 × 10^–5 s^–1
- Tm (HP9): 60 °C
- kd (Z-HP15 [2]): 5.5 × 10^–5 s^–1
